In patent publication US10927123B2, “Modulators of the beta-3 adrenergic receptor useful for the treatment or prevention of disorders related thereto” (Arena Pharmaceuticals, Inc., priority 2016, dated 2021):

Molecular target: Beta-3 Adrenergic Receptor (Homo sapiens (Human), UniProt P13945)
Test: HTRF cAMP antagonist assay (IC50 determination)
Type: cell-based
Settings: CHO-K1 cells stably expressing recombinant receptor; antagonism of isoproterenol at EC90; cAMP readout
Summary of the method: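 Antagonist mode: isoproterenol at its predetermined EC90 added after compound to recombinant CHO-K1 cells in IBMX-containing PBS, 1 h, room temperature. Compounds tested as 5-fold, 10-point dilutions, top final typically 10 or 100 μM. HTRF signal converted to cAMP via standard curve, giving IC50.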

Sequence of Beta-3 Adrenergic Receptor (P13945 whole entry, species assumed): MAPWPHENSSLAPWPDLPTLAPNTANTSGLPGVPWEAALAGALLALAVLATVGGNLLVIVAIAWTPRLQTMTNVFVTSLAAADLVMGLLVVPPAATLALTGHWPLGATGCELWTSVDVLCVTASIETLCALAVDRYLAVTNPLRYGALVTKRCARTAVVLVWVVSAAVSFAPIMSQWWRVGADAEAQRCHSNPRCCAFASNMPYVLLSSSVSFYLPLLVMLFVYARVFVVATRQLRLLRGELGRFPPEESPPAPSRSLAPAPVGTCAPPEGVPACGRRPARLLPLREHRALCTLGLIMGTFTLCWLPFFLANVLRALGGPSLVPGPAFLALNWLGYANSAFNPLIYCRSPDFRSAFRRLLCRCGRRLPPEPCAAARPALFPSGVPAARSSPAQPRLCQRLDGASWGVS

Row | Compound | IC50 [µM]
1 | Cc1cc(-c2cccc(S(=O)(=O)N3CCC4(CC3)CC(NC[C@H](O)COc3cccc(S(C)(=O)=O)c3)CO4)c2)ccn1 (stereo partly drawn) [Compound 44, (2S)-1-(8-(3-(2-methylpyridin-4-yl)phenylsulfonyl)-1-oxa-8-azaspiro[4.5]decan-3-ylamino)-3-(3-(methylsulfonyl)phenoxy)propan-2-ol] | 0.0215
2 | CS(=O)(=O)c1cccc(OC[C@@H](O)CNC2COC3(CCN(S(=O)(=O)c4cccc(-c5ccccn5)c4)CC3)C2)c1 (stereo partly drawn) [Compound 45, (2S)-1-(3-(methylsulfonyl)phenoxy)-3-(8-(3-(pyridin-2-yl)phenylsulfonyl)-1-oxa-8-azaspiro[4.5]decan-3-ylamino)propan-2-ol] | 0.0236
3 | CS(=O)(=O)c1cccc(OC[C@@H](O)CNC2COC3(CCN(S(=O)(=O)c4cccnc4)CC3)C2)c1 (stereo partly drawn) [Compound 46, (2S)-1-(3-(methylsulfonyl)phenoxy)-3-(8-(pyridin-3-ylsulfonyl)-1-oxa-8-azaspiro[4.5]decan-3-ylamino)propan-2-ol] | 0.087
4 | CS(=O)(=O)c1cccc(OC[C@@H](O)CNC2COC3(CCN(S(=O)(=O)c4ccccc4)CC3)C2)c1 (stereo partly drawn) [Compound 47, (2S)-1-(3-(methylsulfonyl)phenoxy)-3-(8-(phenylsulfonyl)-1-oxa-8-azaspiro[4.5]decan-3-ylamino)propan-2-ol] | 0.0821
5 | Cc1cccc(S(=O)(=O)N2CCC3(CC2)CC(NC[C@H](O)COc2cccc(S(C)(=O)=O)c2)CO3)c1 (stereo partly drawn) [Compound 48, (2S)-1-(3-(methylsulfonyl)phenoxy)-3-(8-(m-tolylsulfonyl)-1-oxa-8-azaspiro[4.5]decan-3-ylamino)propan-2-ol] | 0.0461
6 | COc1cccc(S(=O)(=O)N2CCC3(CC2)CC(NC[C@H](O)COc2cccc(S(C)(=O)=O)c2)CO3)c1 (stereo partly drawn) [Compound 49, (2S)-1-(8-(3-methoxyphenylsulfonyl)-1-oxa-8-azaspiro[4.5]decan-3-ylamino)-3-(3-(methylsulfonyl)phenoxy)propan-2-ol] | 0.0331
7 | CS(=O)(=O)c1cccc(OC[C@@H](O)CNC2COC3(CCN(S(=O)(=O)c4cccc(C(F)(F)F)c4)CC3)C2)c1 (stereo partly drawn) [Compound 50, (2S)-1-(3-(methylsulfonyl)phenoxy)-3-(8-(3-(trifluoromethyl)phenylsulfonyl)-1-oxa-8-azaspiro[4.5]decan-3-ylamino)propan-2-ol] | 0.0422
8 | CS(=O)(=O)c1cccc(OC[C@@H](O)CNC2COC3(CCN(S(=O)(=O)c4ccc(-c5ccccc5)s4)CC3)C2)c1 (stereo partly drawn) [Compound 51, (2S)-1-(3-(methylsulfonyl)phenoxy)-3-(8-(5-phenylthiophen-2-ylsulfonyl)-1-oxa-8-azaspiro[4.5]decan-3-ylamino)propan-2-ol] | 0.0174
9 | Cc1noc(C)c1S(=O)(=O)N1CCC2(CC1)CC(NC[C@H](O)COc1cccc(S(C)(=O)=O)c1)CO2 (stereo partly drawn) [Compound 52, (2S)-1-(8-(3,5-dimethylisoxazol-4-ylsulfonyl)-1-oxa-8-azaspiro[4.5]decan-3-ylamino)-3-(3-(methylsulfonyl)phenoxy)propan-2-ol] | 0.0612
10 | CS(=O)(=O)c1cccc(OC[C@@H](O)CNC2COC3(CCN(S(=O)(=O)c4ccc5c(c4)NC(=O)CO5)CC3)C2)c1 (stereo partly drawn) [Compound 53, 6-(3-((S)-2-hydroxy-3-(3-(methylsulfonyl)phenoxy)propylamino)-1-oxa-8-azaspiro[4.5]decan-8-ylsulfonyl)-2H-benzo[b][1,4]oxazin-3(4H)-one] | 0.0239
11 | CS(=O)(=O)c1cccc(OC[C@@H](O)CNC2COC3(CCN(S(=O)(=O)c4cccc(F)c4)CC3)C2)c1 (stereo partly drawn) [Compound 54, (2S)-1-(8-(3-fluorophenylsulfonyl)-1-oxa-8-azaspiro[4.5]decan-3-ylamino)-3-(3-(methylsulfonyl)phenoxy)propan-2-ol] | 0.0459
12 | CS(=O)(=O)c1cccc(OC[C@@H](O)CNC2COC3(CCN(S(=O)(=O)c4cccc(C#N)c4)CC3)C2)c1 (stereo partly drawn) [Compound 55, 3-(3-((S)-2-hydroxy-3-(3-(methylsulfonyl)phenoxy)propylamino)-1-oxa-8-azaspiro[4.5]decan-8-ylsulfonyl)benzonitrile] | 0.0305
13 | CS(=O)(=O)c1cccc(OC[C@@H](O)CNC2COC3(CCN(C(=O)Cc4csc(N)n4)CC3)C2)c1 (stereo partly drawn) [Compound 56, 2-(2-aminothiazol-4-yl)-1-(3-((S)-2-hydroxy-3-(3-(methylsulfonyl)phenoxy)propylamino)-1-oxa-8-azaspiro[4.5]decan-8-yl)ethanone] | 1.99
14 | CS(=O)(=O)c1cccc(OC[C@@H](O)CNC2COC3(CCN(C(=O)c4ccc5ccccc5c4)CC3)C2)c1 (stereo partly drawn) [Compound 57, (3-((S)-2-hydroxy-3-(3-(methylsulfonyl)phenoxy)propylamino)-1-oxa-8-azaspiro[4.5]decan-8-yl)(naphthalen-2-yl)methanone] | 0.487
15 | CCn1ncc(S(=O)(=O)N2CCC3(CC2)CC(NC[C@H](O)COc2cccc(S(C)(=O)=O)c2)CO3)c1C (stereo partly drawn) [Compound 58, (2S)-1-(8-(1-ethyl-5-methyl-1H-pyrazol-4-ylsulfonyl)-1-oxa-8-azaspiro[4.5]decan-3-ylamino)-3-(3-(methylsulfonyl)phenoxy)propan-2-ol] | 0.109
16 | CS(=O)(=O)c1cccc(OC[C@@H](O)CNC2COC3(CCN(S(=O)(=O)c4ccc5c(Cl)cccc5c4)CC3)C2)c1 (stereo partly drawn) [Compound 59, (2S)-1-(8-(5-chloronaphthalen-2-ylsulfonyl)-1-oxa-8-azaspiro[4.5]decan-3-ylamino)-3-(3-(methylsulfonyl)phenoxy)propan-2-ol] | 0.0123
17 | CS(=O)(=O)c1cccc(OC[C@@H](O)CNC2COC3(CCN(S(=O)(=O)c4cc5ccccc5o4)CC3)C2)c1 (stereo partly drawn) [Compound 60, (2S)-1-(8-(benzofuran-2-ylsulfonyl)-1-oxa-8-azaspiro[4.5]decan-3-ylamino)-3-(3-(methylsulfonyl)phenoxy)propan-2-ol] | 0.0174
18 | CS(=O)(=O)c1cccc(OC[C@@H](O)CNC2COC3(CCN(S(=O)(=O)c4ccc5occc5c4)CC3)C2)c1 (stereo partly drawn) [Compound 61, (2S)-1-(8-(benzofuran-5-ylsulfonyl)-1-oxa-8-azaspiro[4.5]decan-3-ylamino)-3-(3-(methylsulfonyl)phenoxy)propan-2-ol] | 0.0298
19 | CS(=O)(=O)c1cccc(OC[C@@H](O)CNC2COC3(CCN(S(=O)(=O)c4ccc5[nH]ccc5c4)CC3)C2)c1 (stereo partly drawn) [Compound 62, (2S)-1-(8-(1H-indol-5-ylsulfonyl)-1-oxa-8-azaspiro[4.5]decan-3-ylamino)-3-(3-(methylsulfonyl)phenoxy)propan-2-ol] | 0.0245
20 | CS(=O)(=O)c1cccc(OC[C@@H](O)CNC2COC3(CCN(S(=O)(=O)c4cccc(-c5cccnc5)c4)CC3)C2)c1 (stereo partly drawn) [Compound 63, (2S)-1-(3-(methylsulfonyl)phenoxy)-3-(8-(3-(pyridin-3-yl)phenylsulfonyl)-1-oxa-8-azaspiro[4.5]decan-3-ylamino)propan-2-ol] | 0.0172
21 | CN1CCOc2cc(C(=O)N3CCC4(CC3)CC(NC[C@H](O)COc3cccc(S(C)(=O)=O)c3)CO4)ccc21 (stereo partly drawn) [Compound 64, (3-((S)-2-hydroxy-3-(3-(methylsulfonyl)phenoxy)propylamino)-1-oxa-8-azaspiro[4.5]decan-8-yl)(4-methyl-3,4-dihydro-2H-benzo[6][1,4]oxazin-7-yl)methanone] | 0.922
22 | CS(=O)(=O)c1cccc(OC[C@@H](O)CNC2COC3(CCN(C(=O)c4cc5ccccc5[nH]4)CC3)C2)c1 (stereo partly drawn) [Compound 65, (3-((S)-2-hydroxy-3-(3-(methylsulfonyl)phenoxy)propylamino)-1-oxa-8-azaspiro[4.5]decan-8-yl)(1H-indol-2-yl)methanone] | 0.711
23 | CS(=O)(=O)c1cccc(OC[C@@H](O)CNC2COC3(CCN(C(=O)c4c[nH]c5ccccc45)CC3)C2)c1 (stereo partly drawn) [Compound 66, (3-((S)-2-hydroxy-3-(3-(methylsulfonyl)phenoxy)propylamino)-1-oxa-8-azaspiro[4.5]decan-8-yl)(1H-indol-3-yl)methanone] | 0.982
24 | CS(=O)(=O)c1cccc(OC[C@@H](O)CNC2COC3(CCN(C(=O)c4ccc5[nH]ccc5c4)CC3)C2)c1 (stereo partly drawn) [Compound 67, (3-((S)-2-hydroxy-3-(3-(methylsulfonyl)phenoxy)propylamino)-1-oxa-8-azaspiro[4.5]decan-8-yl)(1H-indol-5-yl)methanone] | 0.822
25 | CS(=O)(=O)c1cccc(OC[C@@H](O)CNC2COC3(CCN(C(=O)c4ccc5cc[nH]c5c4)CC3)C2)c1 (stereo partly drawn) [Compound 68, (3-((S)-2-hydroxy-3-(3-(methylsulfonyl)phenoxy)propylamino)-1-oxa-8-azaspiro[4.5]decan-8-yl)(1H-indol-6-yl)methanone] | 0.494
26 | CS(=O)(=O)c1cccc(OC[C@@H](O)CNC2COC3(CCN(S(=O)(=O)c4cccc(Br)c4)CC3)C2)c1 (stereo partly drawn) [Compound 69, (2S)-1-(8-(3-bromophenylsulfonyl)-1-oxa-8-azaspiro[4.5]decan-3-ylamino)-3-(3-(methylsulfonyl)phenoxy)propan-2-ol] | 0.0213
27 | CS(=O)(=O)c1cccc(OC[C@@H](O)CNC2COC3(CCN(S(=O)(=O)c4cccc(-c5ccc(N)nc5)c4)CC3)C2)c1 (stereo partly drawn) [Compound 70, (2S)-1-(8-(3-(6-aminopyridin-3-yl)phenylsulfonyl)-1-oxa-8-azaspiro[4.5]decan-3-ylamino)-3-(3-(methylsulfonyl)phenoxy)propan-2-ol] | 0.0244
28 | CS(=O)(=O)c1cccc(OC[C@@H](O)CNC2COC3(CCN(S(=O)(=O)c4cccc(-c5cncnc5)c4)CC3)C2)c1 (stereo partly drawn) [Compound 71, (2S)-1-(3-(methylsulfonyl)phenoxy)-3-(8-(3-(pyrimidin-5-yl)phenylsulfonyl)-1-oxa-8-azaspiro[4.5]decan-3-ylamino)propan-2-ol] | 0.039
29 | CS(=O)(=O)c1cccc(OC[C@@H](O)CNC2COC3(CCN(S(=O)(=O)c4ccccn4)CC3)C2)c1 (stereo partly drawn) [Compound 72, (2S)-1-(3-(methylsulfonyl)phenoxy)-3-(8-(pyridin-2-ylsulfonyl)-1-oxa-8-azaspiro[4.5]decan-3-ylamino)propan-2-ol] | 0.329
